From patent US10934311B2, “Heterocyclic compound used as FGFR inhibitor” (Hangzhou Innogate Pharma Co., Ltd., priority 2016, dated 2021) come the findings set out here.

The target in assay [1] is FGFR1 (Homo sapiens, UniProt P11362). The assay can be described thus: FGFR1 kinase activity inhibition (Caliper mobility shift assay). It counts as biochemical. Conditions: read-out: FGFR kinase activity inhibition (IC50, nM) FGFR1. As for the experimental part: (§1) 1. FGFR1, FGFR2, FGFR3, and FGFR4 Kinase Activity Inhibition Experiments The FGFR1, FGFR2, FGFR3, and FGFR4 protein kinase activities were measured using the Caliper mobility shift assay. Compounds were solubilized in DMSO and diluted in kinase buffer. 5 µL of compound at 5 times final concentration (10% DMSO) was added to a 384-well plate. 10 μL of a 2.5-fold enzyme (FGFR1, FGFR2, FGFR3, and FGFR4, respectively) solution was added and incubated at room temperature for 10 minutes, followed by the addition of […] of a 2.5-fold substrate (FAM-labeled peptide and ATP) solution. The reaction was incubated for 30-60 minutes at 28° C., then stopped by adding 25 μL of stop solution (pH 7.5 100 mM HEPES, 0.015% Brij-35, 0.2% Coating Reagent #3, 50 mM EDTA). Conversion data was read on the Caliper EZ Reader II (Caliper Life Sciences). The conversion rate was converted into inhibition rate (% inhibition rate=(max−sample conversion rate)/(max−min)*100). Where max refers to the conversion of the DMSO control and min refers to the conversion of the non-enzymatic live control. With the compound concentration and inhibition rate plotted on the abscissa and the vertical axis, the curve was fitted using XLFit excel add-in version 4.3.1 software and the IC50 was calculated.
Sequence of FGFR1 (P11362 22-822): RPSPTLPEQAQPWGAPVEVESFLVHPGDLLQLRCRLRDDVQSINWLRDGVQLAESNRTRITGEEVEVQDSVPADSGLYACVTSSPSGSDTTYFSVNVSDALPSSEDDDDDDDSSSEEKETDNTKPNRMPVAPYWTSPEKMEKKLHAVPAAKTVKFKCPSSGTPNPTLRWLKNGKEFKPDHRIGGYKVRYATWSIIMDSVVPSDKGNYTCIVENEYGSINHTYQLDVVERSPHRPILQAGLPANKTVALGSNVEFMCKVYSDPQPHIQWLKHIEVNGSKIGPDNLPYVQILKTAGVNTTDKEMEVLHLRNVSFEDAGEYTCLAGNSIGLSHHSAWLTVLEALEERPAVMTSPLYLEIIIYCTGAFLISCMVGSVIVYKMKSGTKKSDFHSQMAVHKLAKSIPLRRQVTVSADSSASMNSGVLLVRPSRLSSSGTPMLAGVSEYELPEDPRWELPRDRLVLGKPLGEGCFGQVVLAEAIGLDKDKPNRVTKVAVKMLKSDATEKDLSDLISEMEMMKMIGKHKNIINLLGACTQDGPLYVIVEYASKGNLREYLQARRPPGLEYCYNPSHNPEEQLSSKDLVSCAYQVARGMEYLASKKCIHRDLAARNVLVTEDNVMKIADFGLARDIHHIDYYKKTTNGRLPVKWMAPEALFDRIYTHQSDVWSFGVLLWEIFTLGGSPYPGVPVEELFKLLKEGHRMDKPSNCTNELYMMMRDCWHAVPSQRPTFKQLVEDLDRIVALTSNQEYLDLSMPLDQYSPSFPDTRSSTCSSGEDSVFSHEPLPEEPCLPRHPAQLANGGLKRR

Assay [2] has as its target FGFR2 (Homo sapiens, UniProt P21802). The assay can be described thus: FGFR2 kinase activity inhibition (Caliper mobility shift assay). The format is biochemical. Conditions: read-out: FGFR kinase activity inhibition (IC50, nM) FGFR2. As for the experimental part: as §1
The target of assay [3] is FGFR3 (Homo sapiens, UniProt P22607). The assay can be described thus: FGFR3 kinase activity inhibition (Caliper mobility shift assay). It counts as biochemical. As to conditions: read-out: FGFR kinase activity inhibition (IC50, nM) FGFR3. As for the experimental part:
as §1

The target in assay [4] is FGFR4 (Homo sapiens, UniProt P22455). The assay can be described thus: FGFR4 kinase activity inhibition (Caliper mobility shift assay). The format is biochemical. As to conditions: read-out: FGFR kinase activity inhibition (IC50, nM) FGFR4. As for the experimental part:
as §1

Assay [5] deals with SNU-16 tumor cells. The assay can be described thus: Inhibition test against SNU-16 tumor cell proliferation (CTG). It counts as cell-based. Conditions: Homo sapiens, 72 hours drug treatment, CTG readout, read-out: Inhibits of SNU-16 tumor cells proliferation (IC50, nM) SNU-16. As for the experimental part:
2. Compounds' Inhibition Test Against SNU-16 Tumor Cell Proliferation
SNU-16 cell suspension was adjusted to 5.56×10e4/mL with RPMI 1640 medium. Add 90 μL of cell suspension to 96-well cell culture plates per well for a final cell concentration of 5000 cells/well. The test compound was dissolved in DMSO as a 10 mM stock solution. The 3× series of serial dilutions were prepared with stock and DMSO and then diluted 100-fold with media. Finally, 10 μL of the corresponding 10× solution was added to each well of each cell, and each drug concentration was 2 replicates. The final concentration of each compound was 1000 nM, 333.3 nM, 111.1 nM, 37.04 nM, 12.35 nM, 4.115 nM, 1.372 nM, 0.457 nM, 0.152 nM, the final concentration of DMSO per well is 0.1%. Place in a 37° C., 5% CO2 incubator for 72 hours. After 72 hours of drug treatment, add 50 μL (1/2 culture volume) of CTG solution that has been previously thawed and equilibrated to room temperature per well according to CTG instructions, mix for 2 minutes using a microplate shaker, and allow to stand at room temperature for 10 minutes. The Envision 2104 reader was used to determine the […] signal value. Cell viability formula: Vsample/Vvehicle control×100% for calculation. Wherein Vsample is the reading of the drug treatment group and, Vvehicle control is the average of the solvent control group. Using the GraphPad Prism 5.0 software, a sigmoidal dose-survival curve was plotted using a non-linear regression model and IC50 values were calculated.

Sequence of FGFR2 (P21802 22-821): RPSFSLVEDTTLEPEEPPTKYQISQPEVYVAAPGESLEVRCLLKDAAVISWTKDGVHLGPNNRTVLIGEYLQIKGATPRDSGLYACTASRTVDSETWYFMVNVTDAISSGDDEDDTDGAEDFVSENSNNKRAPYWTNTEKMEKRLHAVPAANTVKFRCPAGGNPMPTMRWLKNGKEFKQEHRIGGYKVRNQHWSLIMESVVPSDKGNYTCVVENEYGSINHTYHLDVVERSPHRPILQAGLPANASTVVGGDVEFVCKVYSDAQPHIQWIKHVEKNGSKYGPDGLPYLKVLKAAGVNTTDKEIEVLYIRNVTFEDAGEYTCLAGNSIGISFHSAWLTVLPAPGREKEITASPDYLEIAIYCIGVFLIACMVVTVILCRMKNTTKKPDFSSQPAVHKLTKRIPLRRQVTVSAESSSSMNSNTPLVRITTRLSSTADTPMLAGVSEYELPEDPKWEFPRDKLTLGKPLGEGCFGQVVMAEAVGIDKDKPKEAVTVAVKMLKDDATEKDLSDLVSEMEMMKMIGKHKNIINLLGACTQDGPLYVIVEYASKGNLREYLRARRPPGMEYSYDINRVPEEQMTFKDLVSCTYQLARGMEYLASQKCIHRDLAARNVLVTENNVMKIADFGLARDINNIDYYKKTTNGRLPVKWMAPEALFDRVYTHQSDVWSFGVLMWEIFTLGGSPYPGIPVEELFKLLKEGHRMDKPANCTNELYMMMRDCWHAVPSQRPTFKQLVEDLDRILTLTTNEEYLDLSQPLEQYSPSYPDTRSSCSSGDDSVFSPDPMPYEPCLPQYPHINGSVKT
Sequence of FGFR3 (P22607 23-806): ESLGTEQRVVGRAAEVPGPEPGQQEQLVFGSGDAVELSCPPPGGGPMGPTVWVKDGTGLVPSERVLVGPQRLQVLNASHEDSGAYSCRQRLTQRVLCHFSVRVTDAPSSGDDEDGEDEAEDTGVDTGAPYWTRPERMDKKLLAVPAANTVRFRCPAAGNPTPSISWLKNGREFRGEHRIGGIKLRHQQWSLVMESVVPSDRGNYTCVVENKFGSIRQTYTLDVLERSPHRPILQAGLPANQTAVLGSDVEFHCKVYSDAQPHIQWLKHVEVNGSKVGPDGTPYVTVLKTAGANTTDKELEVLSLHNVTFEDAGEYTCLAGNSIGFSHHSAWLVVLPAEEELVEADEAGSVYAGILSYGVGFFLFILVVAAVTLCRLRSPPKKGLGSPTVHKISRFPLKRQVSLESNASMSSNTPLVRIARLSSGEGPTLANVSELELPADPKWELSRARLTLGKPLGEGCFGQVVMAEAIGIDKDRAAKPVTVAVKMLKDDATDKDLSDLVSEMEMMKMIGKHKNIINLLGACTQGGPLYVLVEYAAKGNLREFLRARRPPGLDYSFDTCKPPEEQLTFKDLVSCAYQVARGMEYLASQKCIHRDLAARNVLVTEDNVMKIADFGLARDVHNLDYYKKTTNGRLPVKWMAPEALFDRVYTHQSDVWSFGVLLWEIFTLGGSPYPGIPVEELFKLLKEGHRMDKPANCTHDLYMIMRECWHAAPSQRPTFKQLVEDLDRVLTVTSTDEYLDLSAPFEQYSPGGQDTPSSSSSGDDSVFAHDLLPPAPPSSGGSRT
Sequence of FGFR4 (P22455 22-802): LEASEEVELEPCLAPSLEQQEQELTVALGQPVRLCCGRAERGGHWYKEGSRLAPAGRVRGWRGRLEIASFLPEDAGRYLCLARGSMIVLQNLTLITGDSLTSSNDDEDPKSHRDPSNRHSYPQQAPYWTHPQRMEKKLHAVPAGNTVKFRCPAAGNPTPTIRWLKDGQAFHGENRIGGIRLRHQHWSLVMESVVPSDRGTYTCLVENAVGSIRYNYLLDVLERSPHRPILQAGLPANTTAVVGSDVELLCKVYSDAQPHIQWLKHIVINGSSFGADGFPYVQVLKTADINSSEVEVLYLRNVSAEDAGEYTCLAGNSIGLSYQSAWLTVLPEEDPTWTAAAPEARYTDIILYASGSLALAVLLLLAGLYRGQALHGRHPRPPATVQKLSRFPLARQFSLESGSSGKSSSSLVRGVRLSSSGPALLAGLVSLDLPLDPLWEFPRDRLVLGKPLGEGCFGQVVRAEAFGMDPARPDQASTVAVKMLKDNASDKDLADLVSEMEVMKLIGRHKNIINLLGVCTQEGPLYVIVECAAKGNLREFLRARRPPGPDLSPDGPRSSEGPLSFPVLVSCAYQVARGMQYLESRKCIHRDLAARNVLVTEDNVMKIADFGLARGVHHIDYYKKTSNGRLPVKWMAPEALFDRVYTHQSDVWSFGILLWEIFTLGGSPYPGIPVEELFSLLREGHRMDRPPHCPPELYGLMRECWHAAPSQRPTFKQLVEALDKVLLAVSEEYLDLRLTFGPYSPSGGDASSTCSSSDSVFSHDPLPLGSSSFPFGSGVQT

For the compound `COc1cc(OC)c(Cl)c(NC(=O)N(C)c2cc(Nc3ccc4c(c3)OC[C@H]3COCCN43)ncn2)c1Cl` [Compound 8R], the IC50 in assay [1] and in assay [2] was less than 20 nM throughout.

As for `COc1cc(OC)c(Cl)c(NC(=O)N(C)c2cc(Nc3ccc4c(c3)OCC3CN(C)CCN43)ncn2)c1Cl` (stereo not shown) [Compound 2], the IC50 in assay [1] and in assay [3] was less than 10 nM in each case.

Regarding `COc1cc(OC)c(Cl)c(NC(=O)N(C)c2cc(Nc3ccc4c(c3)OCCN(C)CCO4)ncn2)c1Cl` [Compound 1], the IC50 in assay [1] and in assay [3] was less than 20 nM each time.

As for `COc1cc(OC)c(Cl)c(NC(=O)N(C)c2cc(Nc3ccc4c(c3)OC[C@H]3CN(C5CC5)CCN43)ncn2)c1Cl` [Compound 6R], the IC50 in assay [1] is less than 20 nM; in assay [2], less than 50 nM.

As for `CCN1CCN2c3ccc(Nc4cc(N(C)C(=O)Nc5c(Cl)c(OC)cc(OC)c5Cl)ncn4)cc3OC[C@@H]2C1` [Compound 4S], the IC50 is less than 10 nM in assay [1]; less than 10 nM in assay [2]; less than 10 nM in assay [3]; less than 200 nM in assay [4]; less than 10 nM in assay [5].

Consider `CCS(=O)(=O)N1CCN2c3ccc(Nc4cc(N(C)C(=O)Nc5c(Cl)c(OC)cc(OC)c5Cl)ncn4)cc3OC[C@H]2C1` [Compound 10R], for which the IC50 in assay [1] and in assay [2] was less than 50 nM each time.

`CCN1CCN2c3ccc(Nc4cc(N(C)C(=O)Nc5c(Cl)c(OC)cc(OC)c5Cl)ncn4)cc3OC[C@H]2C1` [Compound 4R]: the IC50 in assay [1] and in assay [2] was less than 10 nM in each case.

As for `C=CC(=O)Nc1cc2c(cc1Nc1cc(N(C)C(=O)Nc3c(Cl)c(OC)cc(OC)c3Cl)ncn1)OC[C@@H]1CN(C)CCN21` [Compound 5S], the IC50 in assay [1] was greater than 1000 nM; in assay [2] it was greater than 1000 nM; in assay [3], greater than 1000 nM; in assay [4], less than 20 nM.

In the case of `COc1cc(OC)c(Cl)c(NC(=O)N(C)c2cc(Nc3ccc4c(c3)OC[C@H]3CN(C)CCN43)ncn2)c1Cl` [Compound 2R], the IC50 is less than 10 nM in assay [1]; less than 10 nM in assay [2]; less than 10 nM in assay [3]; less than 200 nM in assay [4]; less than 10 nM in assay [5].

For the compound `C=CC(=O)Nc1ccc(CN(C(=O)Nc2c(Cl)c(OC)cc(OC)c2Cl)c2cc(Nc3ccc4c(c3)OC[C@@H]3CN(C)CCN43)ncn2)cc1` [Compound 11S], the IC50 was less than 50 nM in assay [1] and less than 200 nM in assay [4].

Consider `COc1cc(OC)c(Cl)c(NC(=O)N(C)c2cc(Nc3ccc(N4CC5CN(C)CC(C4)C5(F)F)cc3)ncn2)c1Cl` [Compound 3], for which the IC50 in assay [1], in assay [3] and in assay [5] was less than 10 nM in each case.

For the compound `COc1cc(OC)c(Cl)c(NC(=O)N(C)c2cc(Nc3ccc4c(c3)OC[C@H]3CN(C(C)=O)CCN43)ncn2)c1Cl` [Compound 7R], the IC50 in assay [1] and in assay [2] was less than 10 nM throughout.

Consider `COc1cc(OC)c(Cl)c(NC(=O)N(C)c2cc(Nc3ccc4c(c3)OC[C@@H]3CN(C)CCN43)ncn2)c1Cl` [Compound 2S], for which the IC50 in assay [1] is less than 10 nM; in assay [2] it was less than 10 nM; in assay [3], less than 10 nM; in assay [4] it was less than 200 nM; in assay [5], less than 10 nM.

Regarding `COc1cc(OC)c(Cl)c(NC(=O)N(C)c2cc(Nc3ccc4c(c3)OC[C@H]3CN(C)CC(=O)N43)ncn2)c1Cl` [Compound 9R], the IC50 in assay [1] and in assay [2] was less than 10 nM each time.
